From US20260034119A1, “5-METHOXY-N,N-[…][…], THEIR […], AND METHODS FOR TREATMENT OF NEUROLOGICAL, […], AND SUBSTANCE USE DISORDERS” (priority 2023, published 2026)
Residue numbers refer to the chain shown, from its start. “Also recorded” adds a separate entry of the source.

How the values were obtained:
OCT1 = molecular target: T1, OCT1 (Homo sapiens, UniProt O15245); test: OCT1 uptake inhibition; type: cell-based; settings: compared with 5-HT1A
T1 construct: expressed in transfected cells; host or cells: Flp-In T-Rex cell line (ThermoFisher), tetracycline-induced
T1 sequence (O15245 1-554): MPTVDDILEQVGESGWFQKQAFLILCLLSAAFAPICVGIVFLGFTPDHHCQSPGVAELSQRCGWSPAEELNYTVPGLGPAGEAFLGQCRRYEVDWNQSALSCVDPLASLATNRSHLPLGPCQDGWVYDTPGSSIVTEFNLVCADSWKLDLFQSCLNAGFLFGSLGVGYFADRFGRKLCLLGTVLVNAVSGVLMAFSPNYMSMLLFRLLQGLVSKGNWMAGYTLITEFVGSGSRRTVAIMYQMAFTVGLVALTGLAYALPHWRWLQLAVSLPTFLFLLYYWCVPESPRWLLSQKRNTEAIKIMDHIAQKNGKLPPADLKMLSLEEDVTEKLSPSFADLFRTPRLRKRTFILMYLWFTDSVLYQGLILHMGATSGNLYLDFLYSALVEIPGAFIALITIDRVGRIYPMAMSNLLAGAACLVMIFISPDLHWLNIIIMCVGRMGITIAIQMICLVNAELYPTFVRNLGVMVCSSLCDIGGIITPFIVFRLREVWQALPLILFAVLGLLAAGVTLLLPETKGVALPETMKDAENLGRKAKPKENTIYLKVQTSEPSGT
Description: Inducible cell lines stably expressing OCT1, OCT2, or PMAT were generated using the Flp-In T-Rex cell line (ThermoFisher) according to manufacturer recommendations. Cells were maintained in DMEM supplemented with 10% FBS, 100 μg/ml hygromycin B (GoldBio), and 10 μg/ml blasticidin (GoldBio). To measure uptake inhibition, cells were seeded into poly-L-lysine coated clear-bottom 384-well plates at a density of 25,000 cells per well in DMEM containing 10% FBS and 2 μg/ml of tetracycline (Sigma) to induce transporter expression. […] Cells were incubated with drug for 30 min at 37° C. Fluorescent substrate was then added to the cells. […] Cells were incubated with respective substrates for an hour at 37° C. OCT2 cells were read directly in a Victor NIVO plate reader using 495 nm excitation and 580 emission filter for 0.1 s. OCT1 and PMAT cells were washed in HBSS supplemented with 20 mM HEPES pH 7.4 before reading in a Victor NIVO plate reader using 435 nm excitation and 480 nm emission filter for 0.1 s.

human 5-HT1A = molecular target: T2, human 5-HT1A (Homo sapiens, UniProt P08908); test: 5-HT1A-mediated cAMP reduction assay (GloSensor, HEK293-T); settings: cAMP, 5-HT1A WT
T2 sequence (P08908 1-422): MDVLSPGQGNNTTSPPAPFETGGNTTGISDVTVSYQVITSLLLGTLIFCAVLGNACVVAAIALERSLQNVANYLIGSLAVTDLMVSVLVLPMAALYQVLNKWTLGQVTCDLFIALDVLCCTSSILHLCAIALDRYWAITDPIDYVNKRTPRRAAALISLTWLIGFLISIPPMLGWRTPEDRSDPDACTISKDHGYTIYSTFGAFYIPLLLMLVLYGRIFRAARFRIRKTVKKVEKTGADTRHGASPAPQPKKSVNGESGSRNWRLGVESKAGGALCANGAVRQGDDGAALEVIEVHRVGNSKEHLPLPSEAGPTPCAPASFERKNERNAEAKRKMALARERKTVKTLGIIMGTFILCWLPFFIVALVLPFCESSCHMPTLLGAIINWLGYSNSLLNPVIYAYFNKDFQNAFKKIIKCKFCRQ

[1] = Mouse brain tissue binding; type: in vitro ADME; settings: for fraction unbound: mouse, brain tissue
C57BL/6J mice = test: Social interaction test after chronic social defeat stress (CSDS)
[2] = Human plasma protein binding; type: in vitro ADME; settings: for fraction unbound: human, plasma
5-HT1A N386V = molecular target: T3, 5-HT1A N386V (Homo sapiens, UniProt P08908, N386V); test: Gi1 BRET at mutant 5-HT1A N386V; type: cell-based; settings: Gi1 BRET, 5-HT1A N386V^7.39
T3 construct: expressed in transfected cells; host or cells: HEK293-T
T3 sequence (P08908 1-422 N386V): T2 sequence (P08908 1-422) with N386V

[3] = tested on: all human 5-HT receptor subtypes; test: PRESTO-TANGO arrestin-recruitment assay; type: cell-based; settings: compared with 5-HT1A
Description: The receptor contructs were obtained from Addgene and contain the TEV cleavage site and the tetracycline transactivator (tTA) fused to the C terminus of the receptor. For the assay, constructs were transfected into HTLA cells (kindly provided by Dr. Bryan Roth, University of North Carolina), which express TEV fused-β-Arrestin2 and a tetracycline transactivator-driven luciferase and are necessary for this assay. A day before the assay cells were cultured in DMEM supplemented with 1% dFBS and transfected with 8 μg of DNA per 7 million cells in a 10 cm plate using PEI transfection. The next day, 20,000 cells in 40 μl were then plated in poly-L-lysine-coated clear-bottom 384-well plates in the same media and incubated for at least 5 hr before stimulation. […] After 16-24 hr overnight incubation, media and drug solutions were aspirated and 20 μl per well of BrightGlo reagent (purchased from Promega, after 1:20 dilution) was added per well. The plate was incubated for 20 min at room temperature in the dark before being counted using a MicroBeta TriLux liquid scintillation counter.

[4] = read-out: % Bound Mean (converted)
[5] = replicate R1, read-out: % Bound R1 (converted)
[6] = replicate R2, read-out: % Bound R2 (converted)

COc1ccc2[nH]cc(CCN3CCCC3)c2c1F [4-F, 5-MeO-PyrT, 4-Fluoro, 5-methoxypyrrolidinyl-tryptamine]
activity at other neurotransmitter transporters (OCT1) (OCT1): substantially lower activity | EC50 (human 5-HT1A): 0.03 nM | pEC50 (human 5-HT1A): 10.5 | brain tissue binding [1]: 82.5% | recovery [1]: 88% | % Compound remaining at 4 h ([1]; 4 h): 96% | fraction unbound [1, 4]: 0.175 | fraction unbound ([1]; read-out: % Unbound): 0.175 | fraction unbound ([1]; read-out: fu): 0.175 | fraction unbound [1, 5]: 0.157 | fraction unbound [1, 6]: 0.193 | number of resilient mice (SI ratio >1) (C57BL/6J mice; drug- vs vehicle-treated stressed animals): markedly increases the number of resilient mice | general locomotion at the social interaction test (C57BL/6J mice; mice, one s.c. administration): no effects of the pharmacological intervention on general locomotion; also recorded: no apparent alterations in locomotor activity | amelioration of SI deficits under WAY-100635 co-administration (C57BL/6J mice; stressed mice, co-administered 5-HT1A antagonist WAY-100635): blocked | corner time (anxiety-like behavior) (C57BL/6J mice; stressed mice, one s.c. administration): rescued; also recorded: no longer observed | social interaction deficit induced by chronic social defeat stress (C57BL/6J mice; stressed mice, one s.c. administration, test 24 hr post drug): rescued; also recorded: rescuing the social interaction deficit | recovery [2]: 81.8% | % Compound remaining at 4 h ([2]; 4 h): 97.9% | fraction unbound [2, 4]: 0.74 | fraction unbound ([2]; read-out: % Unbound): 0.74 | fraction unbound ([2]; read-out: fu): 0.74 | fraction unbound [2, 5]: 0.778 | fraction unbound [2, 6]: 0.702 | pEC50 (5-HT1A N386V): (8.52, | EC50 (5-HT1A N386V; read-out: EC50): 3 nM | activity at all other G protein-coupled serotonin receptors [3]: substantially lower activity
